Measurements as given in US20220105093A1, “PHARMACEUTICAL COMPOSITIONS AND COMBINATIONS COMPRISING INHIBITORS OF THE ANDROGEN RECEPTOR AND USES THEREOF” (ESSA Pharma, Inc., priority 2020, published 2022).

Columns and labels:
[1] = system: androgen responsive genes in LNCaP cells; assay: mRNA expression of androgen responsive genes in LNCaP cells (NanoString AR/Prostate Cancer gene panel)
[2] = In vivo pharmacokinetics in plasma after oral gavage; conditions: mouse, male CD-1 mice
Protocol: The purpose of this study is to determine the pharmacokinetics of the tested compounds in plasma, following oral gavage administration (PO) to male CD-1 mice.
Animal Husbandry: Animals were group housed during acclimation and the study. The animal room environment were controlled (target conditions: temperature 18 to 26° C., relative humidity 30 to 70%, 12 hours artificial light and 12 hours dark). Temperature and relative humidity were monitored daily. Animals were fasted at least 12 hours prior to the administration. All animals had access to Certified Rodent Diet ad libitum 4 hours post dosing.
Dose Formulation: prepared 85-100 μL of a stock solution of representative compounds of the disclosure in DMSO at 50 mM; 1.5% v/v of Tween 80 were added and mixed gently; 95.5% v/v saline was added gently to the organic phase. The solution was mixed slowly by reverse pipetting to get a clear solution.
Dose Administration: the dose formulations were administered via oral gavage per facility SOPs. The dose volume were determined by the animals' body weight collected on the morning of dosing day
Sample Collection: blood collection (about 0.05 mL per time point) was performed from saphenous vein of each animal into polypropylene tubes at each timepoints (0, 0.25, 0.5, 1, 2, 4, 8, 12, and 24 hr). All blood samples were transferred into pre-chilled tubes containing 2 μL of K2-EDTA (0.5M) and placed on wet ice until centrifugation. Each collected blood sample was in the wet-ice before centrifugation. Each collected blood was under centrifugation for 15 minutes at 4° C. and 3000 g for plasma collection. Plasma samples were stored in polypropylene tubes, quickly frozen over dry ice and kept at −70±10° C. until LC/MS/MS analysis.
Bioanalytical analysis: A LC-MS/MS method for the quantitative determination of tested compound in biological matrix were developed under non-GLP compliance. A calibration curve with at least 7 non-zero calibration standards were applied for the method including LLOQ.
Plasma concentration versus time data were analyzed by non-compartmental approaches using the Phoenix WinNonlin 6.3 software program. Cl, Vdss, C0, Cmax, Tmax, T½, AUC(0-t), AUC(0-inf), MRT(0-t), MRT(0-inf), % F (oral availability) and graphs of plasma concentration versus time profile were reported.

[3] = system: androgen responsive genes in VCaP cells; assay: mRNA expression of androgen responsive genes in VCaP cells (RNAseq); type: cell-based
Protocol: Relative mRNA expression in VCaP was measured to assess response of Compound A, enzalutamide (Enza), apalutamide (Apa), or darolutamide (Daro) alone or Compound A in combination with Enza, Apa, or Daro, in androgen responsive genes.

[4] = Compound A in plasma, single PO dose 60.00 mg/kg, single agent or with enzalutamide
[5] = enzalutamide in plasma, single PO dose 15.0 mg/kg, single agent or with Compound A

AUC(0-t) [2, 4] | Cmax [2, 4] | Tmax [2, 4] | half-life ([2]; Compound A in plasma, single PO dose 60.00 mg/kg, single agent or with enzalutamide, read-out: T½ (converted)) | AUC(0-t) [2, 5] | Cmax [2, 5] | Tmax [2, 5] | Structure (SMILES) | Relative mRNA expression of androgen response genes FKBP5, TMPRSS2, KLK2, KLK3, and NKX3.1 ([1]; LNCaP cells (FIG. 6A)) | Log2Fold Change ERRFl1 ([1]; LNCaP, 7.5 μM) | Log2Fold Change SNAl2 ([1]; LNCaP, 7.5 μM) | inhibition of canonical AR dependent genes ([3]; Compound A at 10 μM in combination with the 'lutamides (FIGS. 11A, 11B)) | synergy on androgen responsive gene expression ([3]; Compound A at 10 μM with Enza, Apa or Daro, R1881 stimulation (FIG. 10)) | Log2Fold Change CDC6 ([1]; LNCaP, 7.5 μM)
483 µg·h/mL | 41700 ng/mL | 4 h | 5.4 h |  |  |  | CC(C)(c1ccc(OCc2ccnc(NS(C)(=O)=O)n2)cc1)c1cc(Cl)c(OCCCl)c(C#N)c1 [Compound A, N-(4-((4-(2-(3-chloro-4-(2-chloroethoxy)-5-cyanophenyl)propan-2-yl)phenoxy)methyl)pyrimidin-2-yl)methanesulfonamide] | dose-dependent response | −2.76 | −1.79 | superior inhibition of responsive genes | can synergize with Enza, Apa, and Daro | 
 |  |  |  | 388 µg·h/mL | 21100 ng/mL | 9 h | CNC(=O)c1ccc(N2C(=S)N(c3ccc(C#N)c(C(F)(F)F)c3)C(=O)C2(C)C)cc1F [Enzalutamide, enzalutamide, reference compound] |  | −4.51 | −3.97 |  |  | −1.20
